Test results as given in PubChem BioAssay (NCI).
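Where inhibition never reached the appropriate level, the endpoint shown equals the highest concentration tested. Otherwise, values were interpolated linearly from a five-concentration, 48-hour dose response in 96-well plates. GI50 marks 50% less growth. TGI: total growth inhibition.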

Columns and labels:
Experiment in all cases: growth of human tumour cells (NCI), 48 h
HOP-92 NSCLC = tested on: HOP-92 NSCLC
CAKI-1 renal = tested on: CAKI-1 renal
HCT-116 colon = tested on: HCT-116 colon
MALME-3M melanoma = tested on: MALME-3M melanoma
SNB-19 CNS = tested on: SNB-19 CNS
ACHN renal = tested on: ACHN renal
SW-620 colon = tested on: SW-620 colon
NCI-H460 lung = tested on: NCI-H460 lung
OVCAR-4 ovarian = tested on: OVCAR-4 ovarian
BT-549 breast = tested on: BT-549 breast

Row | SMILES | TGI (HOP-92 NSCLC) | TGI (CAKI-1 renal) | TGI (HCT-116 colon) | TGI (MALME-3M melanoma) | TGI (SNB-19 CNS) | TGI (ACHN renal) | TGI (SW-620 colon) | TGI (NCI-H460 lung) | TGI (OVCAR-4 ovarian) | GI50 (HOP-92 NSCLC) | GI50 (CAKI-1 renal) | GI50 (OVCAR-4 ovarian) | GI50 (HCT-116 colon) | GI50 (MALME-3M melanoma) | GI50 (SNB-19 CNS) | GI50 (ACHN renal) | GI50 (SW-620 colon) | GI50 (NCI-H460 lung) | GI50 (BT-549 breast) | TGI (BT-549 breast)
1 | Cn1c(=O)c2[nH]cnc2n(CC(N)=O)c1=O | > 100 µM | > 100 µM | > 100 µM | > 100 µM | > 100 µM | > 100 µM | > 100 µM | > 100 µM | – | – | – | – | – | – | – | – | – | – | – | –
2 | COC1C2c3cc4c(cc3CC(C#N)(c3ccccc32)N1C(=O)c1ccccc1)OCO4 (centres undefined) | > 100 µM | – | > 100 µM | > 100 µM | > 100 µM | > 100 µM | > 100 µM | > 100 µM | – | – | – | – | – | – | – | – | – | – | – | –
3 | COC1OC(C)C2OC(C)(C)OC2C1OC(C)=O (centres undefined) | > 100 µM | > 100 µM | > 100 µM | > 100 µM | > 100 µM | > 100 µM | > 100 µM | > 100 µM | > 100 µM | – | – | – | – | – | – | – | – | – | – | –
4 | CCOC(=O)C(CNc1ccc(O)cc1)NC(=O)c1ccccc1 (centres undefined) | > 100 µM | > 100 µM | > 100 µM | > 100 µM | > 100 µM | > 100 µM | > 100 µM | > 100 µM | > 100 µM | – | – | – | – | – | – | – | – | – | – | –
5 | NCCCCCCNCc1cccc2ccccc12 | – | > 100 µM | > 100 µM | 35.6 µM | > 100 µM | > 100 µM | > 100 µM | > 100 µM | > 100 µM | – | – | – | – | – | – | – | – | – | – | –
6 | O=C(N/N=C/c1cc(Cl)cc(Cl)c1[O-])c1ccccc1.O=C(N/N=C/c1cc(Cl)cc(Cl)c1[O-])c1ccccc1.[Co+2] | 46.9 µM | > 100 µM | > 100 µM | > 100 µM | > 100 µM | > 100 µM | > 100 µM | > 100 µM | > 100 µM | 5.71 µM | 21.7 µM | 16.1 µM | 14.6 µM | 33 µM | 45 µM | 16.7 µM | 24.9 µM | 16.7 µM | – | –
7 | COc1cccc(C2C3=C(COC3=O)N(CCO)c3cc4c(cc32)OCO4)c1 (centres undefined) | – | > 50 µM | > 16.1 µM | > 50 µM | > 10.6 µM | > 50 µM | > 50 µM | – | > 50 µM | – | 0.449 µM | 2.32 µM | 0.235 µM | – | – | 3.92 µM | 0.229 µM | 0.189 µM | 0.45 µM | > 45.1 µM
8 | C/C=C/COC(=O)CO[N+](=O)[O-] | > 100 µM | > 100 µM | > 100 µM | > 100 µM | > 100 µM | > 100 µM | > 100 µM | > 100 µM | > 100 µM | – | – | – | – | – | – | – | – | – | – | –
9 | COc1cc2c(=O)n(CCN(C)C)c3c4cc5c(cc4ccc3c2cc1OC)OCO5 | 2.6 µM | – | 2.01 µM | 0.967 µM | 8.41 µM | 0.363 µM | 6.87 µM | 0.592 µM | 5.53 µM | 0.505 µM | – | 0.445 µM | 0.195 µM | 0.241 µM | 0.198 µM | 0.128 µM | 0.239 µM | 0.123 µM | 0.413 µM | 5.27 µM
10 | Cc1ccc(C)c(NC(=O)CC2SC(=Nc3ccccc3Cl)NC2=O)c1 (centres undefined) | > 100 µM | > 100 µM | > 100 µM | > 100 µM | > 100 µM | > 100 µM | > 100 µM | > 100 µM | > 100 µM | – | – | – | – | – | – | – | – | – | – | –
11 | CCCCCCCCCCCCCC(=O)CSCCNC(=O)CCNC(=O)[C@@H](O)C(C)(C)COP(=O)(O)OP(=O)(O)OCC1OC(n2cnc3c(N)ncnc32)C(O)C1OP(=O)(O)O (some centres undefined) | 24.5 µM | – | 30.1 µM | 34.6 µM | 35.2 µM | 38 µM | 55.5 µM | 79.7 µM | 22.3 µM | – | – | – | – | – | – | – | – | – | – | –
12 | Clc1ccccc1C(Nc1ncccn1)Nc1ncccn1 | > 100 µM | > 100 µM | > 100 µM | – | > 100 µM | > 100 µM | > 100 µM | > 100 µM | > 100 µM | – | – | – | – | – | – | – | – | – | – | > 100 µM
13 | CC12CCC3c4cc(Br)c(O)c(Br)c4CCC3C1CCC2O (centres undefined) | – | 31.5 µM | > 100 µM | 30.8 µM | – | 73.7 µM | 33 µM | – | – | – | – | – | – | – | – | – | – | – | – | 30.2 µM
14 | O=c1cc(-c2ccccc2)oc2cc(OC/C(=N/O)c3ccc(F)cc3)ccc12 | > 50 µM | 38.6 µM | > 50 µM | – | > 50 µM | > 50 µM | > 50 µM | 44.2 µM | > 50 µM | 28.6 µM | 11.8 µM | > 50 µM | 23.4 µM | – | > 50 µM | 19.2 µM | 48.1 µM | 12.9 µM | 15.1 µM | 36.9 µM
15 | CCN(CC)CCn1[nH]c2c3ccc(=O)cc3sc3c(NCCN)ccc1c32 | 3.96 µM | 11.5 µM | 2.19 µM | 2.73 µM | 4.29 µM | 2.54 µM | 4.77 µM | 1.25 µM | 2.28 µM | – | – | – | – | – | – | – | – | – | – | –
16 | COc1ccc(Cn2cc3c(c2-c2ccccc2)CCc2cnoc2-3)cc1N | – | > 100 µM | > 33.9 µM | – | > 100 µM | > 100 µM | > 100 µM | 1.66 µM | > 100 µM | – | 0.116 µM | 0.898 µM | 0.0996 µM | – | 0.531 µM | 1.11 µM | 0.0779 µM | 0.115 µM | 3.01 µM | > 100 µM
17 | CCOC(=O)/C(=C/c1ccc(N(CCC#N)CCC#N)cc1C)NC(=O)/C=C/c1ccccc1 | – | > 100 µM | > 100 µM | > 100 µM | > 100 µM | > 100 µM | > 100 µM | > 100 µM | – | – | – | – | – | – | – | – | – | – | – | –
18 | N#Cc1c(N)nc(NCc2ccccc2)c(C#N)c1-c1ccc(Cl)cc1Cl | > 100 µM | > 100 µM | > 100 µM | > 100 µM | > 100 µM | > 100 µM | > 100 µM | > 100 µM | 99.3 µM | 1.12 µM | > 100 µM | 24.7 µM | > 100 µM | > 63.1 µM | > 100 µM | > 100 µM | 74.4 µM | > 69.4 µM | – | –
19 | CC1=C[C@H]2C[C@H](C)[C@H]3CC[C@H](C)[C@]4(C1)C(=O)C(O)=C(C)C(=O)[C@@]324 | – | 66.1 µM | 41.8 µM | 80.7 µM | > 100 µM | > 100 µM | > 100 µM | > 100 µM | > 100 µM | – | 24.9 µM | 29.8 µM | 19.5 µM | 23.3 µM | 30.2 µM | 34.2 µM | 31.5 µM | 42.9 µM | 46 µM | > 100 µM
